In US5763479A, “Naphthoquinone derivatives for the treatment of chronic inflammation” (KS Biomedix Ltd., priority 1991, dated 1998):
Like-named read-outs stand apart in the source and are kept apart here.

Experiments:
[1] = redox potential (E1/8) against a standard calomel electrode; assay type: physicochemical; conditions: for E1/2 (mV): Table 2
G6PD [2] = target: T1, G6PD (Homo sapiens, UniProt P11413); assay: decrease in G6PD activity in synovial lining cells of human rheumatoid tissue maintained in vitro; assay type: cell-based; design: synovial lining cells of human rheumatoid tissue maintained in vitro; from tissue; host or cells: human rheumatoid synovial tissue (synovial lining cells), maintained in vitro; conditions: mean±SEM
T1 sequence (P11413 2-515 limits assumed): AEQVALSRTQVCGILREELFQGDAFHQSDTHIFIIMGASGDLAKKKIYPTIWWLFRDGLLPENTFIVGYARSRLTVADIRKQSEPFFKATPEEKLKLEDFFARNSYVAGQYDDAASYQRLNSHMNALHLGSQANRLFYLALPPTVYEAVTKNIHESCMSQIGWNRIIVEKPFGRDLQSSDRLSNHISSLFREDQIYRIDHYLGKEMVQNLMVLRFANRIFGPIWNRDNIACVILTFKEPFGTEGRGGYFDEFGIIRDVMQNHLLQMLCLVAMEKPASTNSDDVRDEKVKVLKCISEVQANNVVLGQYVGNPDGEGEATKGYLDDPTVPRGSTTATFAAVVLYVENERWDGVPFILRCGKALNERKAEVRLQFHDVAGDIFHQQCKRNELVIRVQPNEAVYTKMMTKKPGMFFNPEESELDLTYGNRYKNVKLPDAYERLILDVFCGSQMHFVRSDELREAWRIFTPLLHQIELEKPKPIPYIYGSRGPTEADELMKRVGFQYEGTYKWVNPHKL
Text: The percentage decreases in […] activity (mean±SEM) in the synovial lining cells of human rheumatoid tissue maintained in vitro, induced by naphthoquinone of formula I (R=H, X=O), including compounds outside the scope of the invention, are given in Table 2.

[3] = test system: glucose 6-phosphate dehydrogenase (G6PD); assay: G6PD in synovial lining cells of arthritic rabbits (Example 2); assay type: in vivo, rabbit
Procedure: (§1) In each of separate groups of six, rabbits were treated with the same volume of either olive oil alone or dimethoxynaphthoquinone in olive oil for six weeks after the initiation of arthritis (six weeks after challenge). The treatment was 25 mg/kg orally twice a week.
(§2) The rabbits were investigated for the concentration of G6PD, 6PGL and 6PGD in synovial lining cells. The respective mean values (±SEM) for the treatment of olive oil alone were 15.4±1.9, 2.5±0.3 and 8.2±1.1; the results for those treated with dimethoxynaphthoquinone were 7.7±1.2, negligible and 4.6±1.1.

[4] = test system: 6-phosphogluconate dehydrogenase (6PGD); assay: 6PGD in synovial lining cells of arthritic rabbits (Example 2); assay type: in vivo, rabbit; conditions: 25 mg/kg orally twice a week, six weeks; olive oil alone 8.2±1.1
Procedure: as §1, §2

[5] = test system: 6-phosphogluconolactonase (6PGL); assay: 6PGL in synovial lining cells of arthritic rabbits (Example 2); assay type: in vivo, rabbit; conditions: 25 mg/kg orally twice a week, six weeks; olive oil alone 2.5±0.3
Procedure: as §1, §2

chronic RA = assay: therapeutic efficacy by intra-articular injection in chronic RA patients; assay type: in vivo, human; conditions: intra-articular injections
Text: Other soluble compounds of the invention are menadiol diphosphate, menadiol disulphate and 2-methyl-1,4-naphthohydroquinone bis(hydrogen succinate), sodium salt.

lysosomal latency = lysosomal latency before and after intra-articular injection in patients with chronic arthritic inflammation; assay type: in vivo, human; conditions: before injection 0, normal around 40%
Procedure: (§3) Two human patients suffering from chronic arthritic inflammation were given intra-articular injections of menadione bisulphite. The G6PD activity (mean integrated extinction ×10^3 /10 min) and lysosomal latency (% bound activity) were measured before and after injection. The G6PD activity decreased from 423 to 188 in one case and from 245 to 127 in the other; the lysosomal latency increased, respectively from 0 to 13 and from 0 to 31 (normal values are around 40% latency).

[6] = chemical stability and reactivity; assay type: physicochemical; conditions: no double bond between positions 2 and 3
G6PD [7] = target: T1, G6PD; assay: G6PD activity before and after intra-articular injection in patients with chronic arthritic inflammation; assay type: in vivo
Procedure: as §3

challenged joint = assay: established immune (ovalbumin) arthritis in rabbits, oral menadione epoxide: joint temperature and degree of inflammation; assay type: in vivo, rabbit (New Zealand white)
Procedure: (§4) Twenty-two female New Zealand white rabbits (initial weight 1.5-2.0 kg) were immunised subcutaneously between the scapulae, with 0.5 ml of complete Freund's adjuvant containing 2.5 mg of ovalbumin (Sigma). A booster inoculation was given two weeks later. Four weeks after this, the right knee was challenged with an intra-articular injection (0.5 ml) of sterile saline containing ovalbumin (10 mg/ml). One week before this; twice a week for the next two weeks; and weekly thereafter, the temperature of both knees was measured on the medial side of the patella by means of a Digi-Sense thermocouple thermometer (Cole-Palmer Instrument Co., Chicago, Ill., U.S.A.). They were skin-tested before challenge to ensure that the cell-mediated immunity was equivalent in the treated and control rabbits. […] They were killed in pairs, treated and untreated, by intravenous injection of phenobarbitone sodium at various intervals from five to nine weeks later. After removal, the synovial tissue was cut into pieces of not greater than 0.5 cm^3; these were immersed for up to 1 min in a 5% solution of polyvinyl alcohol containing 5% CaCl2.2H2 O (Chayen et al, 1973) and then chilled to -70 ° C. in n-hexane (BDH: low in aromatic hydrocarbons grade). The tissue was stored in dry tubes at -70° C. and examined within two weeks.
Sections were cut (10 μm) in a Bright's cryostat (cabinet temperature of -30° C.) with the knife cooled with solid carbon dioxide. The sections were flash-dried on to slides taken from the ambient temperature of the laboratory (Chayen et al, 1973) and stored briefly in a desiccator before being tested for enzymatic activity.
Depending on the amount of tissue, sections were taken from up to fifteen regions of each challenged joint and stained with 0.1% toluidine blue in 0.1M acetate buffer, pH 6.1. They were assessed for thickening of the synovial lining cell layer; degree of infiltration by both chronic and acute inflammatory cells; and fibrosis. Each of these criteria was evaluated on a scale that ranged from 0 to ++. A value based on all these criteria was given for the response in each challenged joint and the degree of inflammation of the whole joint was assessed on an arbitrary scale of - to ++.

[8] = test system: glucose 6-phosphate dehydrogenase (G6PD); assay: G6PD activity in synovial lining and desquamating cells of arthritic rabbits treated with menadione epoxide; assay type: in vivo, rabbit
Procedure: as §4, with “weeks. […]” for “weeks.”

[9] = test system: 6-phosphogluconolactonase (6PGL); assay: 6PGL activity in synovial lining and desquamating cells of arthritic rabbits treated with menadione epoxide; assay type: in vivo, rabbit
Procedure: as §4, with “weeks. […]” for “weeks.”

neotetrazolium chloride = conditions: sections of various tissues; compared with phenazine methosulphate; cited from earlier work
immune arthritis = conditions: rabbits fed by gavage, cited from earlier work
solubility = assay type: physicochemical

In the case of CC1=C(SC[C@H](NC(=O)CC[C@H](N)C(=O)O)C(=O)NCC(=O)O)C(=O)c2ccccc2C1=O [3-glutathionylmenadione, reference compound], the “E1/2 (mV)” value [1] is reported as -170 mV and the “% decrease in G6PD” value (G6PD [2]) is reported as 37 ± 13.0%.
With CC1=C(SCCC(N)C(=O)O)C(=O)c2ccccc2C1=O (centres unmarked) [3-homocysteinylmenadione, reference compound] the “E1/2 (mV)” value [1] was -190 mV and the “% decrease in G6PD” value (G6PD [2]) was 25 ± 9.7%.
In the case of COC1=C(OC)C(=O)c2ccccc2C1=O [dimethoxynaphthoquinone, 2,3-dimethoxy-1,4-naphthoquinone], the “concentration of G6PD in synovial lining cells (mean ±SEM)” value ([3]; 25 mg/kg orally twice a week, six weeks, olive oil alone 15.4±1.9) is reported as 7.7±1.2, the “effect on all three enzyme activities: G6PD” value ([3]; summary in words for G6PD, 6PGL and 6PGD) is reported as “greatly reduced” and the “E1/2 (mV)” value [1] is reported as -250 mV. The “% decrease in G6PD” value (G6PD [2]) was 49 ± 14.0%, the “concentration of 6PGD in synovial lining cells (mean ±SEM)” value [4] was 4.6±1.1 and the “concentration of 6PGL in synovial lining cells (mean ±SEM)” value [5] was “negligible”.
With CC1=C(C)C(=O)c2ccccc2C1=O [dimethylnaphthoquinone, 2,3-dimethyl-1,4-naphthoquinone] the “E1/2 (mV)” value [1] was -290 mV and the “% decrease in G6PD” value (G6PD [2]) was 61%.
With CC1(S(=O)(=O)O)CC(=O)c2ccccc2C1=O (centres unmarked) [menadione bisulphite, 2-methyl-l,4-dioxotetralin-sulphonate] the therapeutic efficacy (chronic RA) was “demonstrated”, the “lysosomal latency after injection” value (lysosomal latency; first patient) was 13 % bound activity and the “lysosomal latency after injection” value (lysosomal latency; second patient) was 31 % bound activity. The reactivity with thiols [6] was “unreactive”, the “redox potential (E1/8) measured in human plasma” value ([1]; human plasma) was -640 mV and the “redox potential compared with menadione” value ([1]; versus menadione) was “higher redox potential than menadione”. For the same compound, the “G6PD activity after injection” value (G6PD [7]; first patient, before injection 423) was 188 mean integrated extinction ×10^3 /10 min and the “G6PD activity after injection” value (G6PD [7]; second patient, before injection 245) was 127 mean integrated extinction ×10^3 /10 min.
In the case of CC12OC1C(=O)c1ccccc1C2=O (centres unmarked) [menadione epoxide], the “median overall difference in temperature expressed per day (group)” value (challenged joint; from two weeks after treatment until killed, control median 0.589 (0.308 to 0.687), p=0.04) is reported as 0.096 °C day, the “overall degree of inflammation in the challenged joint” value (challenged joint; one of the twelve treated rabbits (totally negative)) is reported as “-” and the “overall difference in temperature between challenged and unchallenged knees, expressed per day (single rabbit)” value (challenged joint; one treated rabbit, from two weeks after start of treatment until killed, 25 mg/kg bi-weekly by gavage, control rabbit 0.7110) is reported as 0.096 °C. The “inflammation assessed by temperature in vivo, visual inspection post mortem and histological examination” value (challenged joint; oral administration, established chronic inflammation) was “marked decrease in the inflammation”, the “G6PD activity in the desquamating cells” value ([8]; desquamating cells, as against 25.5 units in "rheumatoid" intact lining cells and 6 units in normal joints) was 45.7 units and the “effect on G6PD activity” value ([8]; synovial lining cells) was “decrease both activities towards normal levels”. The “6PGL activity in the desquamating cells” value ([9]; desquamating cells, despite very elevated G6PD) was “no equivalent increase” and the “effect on 6PGL activity” value ([9]; synovial lining cells) was “decrease both activities towards normal levels”.
In the case of CC1=CC(=O)c2ccccc2C1=O [menadione, 2-methyl-1,4-naphthoquinone], the “transfer of reducing equivalents to neotetrazolium chloride” value (neotetrazolium chloride) is given as “as effective as phenazine methosulphate”, the “chronic inflammation assessed histologically and by enzyme activity in synovial lining cells” value (immune arthritis; versus control animals) is given as “marked diminution” and the “effect on immune arthritis” value (immune arthritis) is given as “significantly ameliorates”. The “effect on immune arthritis” value (immune arthritis; listed as Menadione) was “effective”, the “E1/2 (mV)” value [1] was -220 mV and the “redox potential (E1/8)” value ([1]; recorded against a standard calomel electrode, 90% ethanol-0.005M acetate buffer pH 4.0) was -220 mV. For the same compound, the “% decrease in G6PD” value (G6PD [2]) was 38 ± 6.9% and the solubility (solubility) was “lipid soluble”.
With CC1=C(O)C(=O)c2ccccc2C1=O [phthiocol] the “E1/2 (mV)” value [1] was -355 mV and the “% decrease in G6PD” value (G6PD [2]) was 47 ± 11.5%.
